Legend:
Type in all cases: cell-based
[1] = molecular target: T1, Nav1.7 Y1548A/V1552A/M1593A (Homo sapiens, UniProt Q15858, M1593A/V1552A/Y1548A); assay: Multiple site-directed mutagenesis, inhibition by patch clamp; conditions: 1 μM
T1 construct: expressed in transfected cells; host or cells: HEK293T
Excerpt: (§1) To further investigate the roles of these residues in WN2-R binding, 3 combinations of double or triple site-directed mutagenesis were introduced, including Y1548A/F1609A (to investigate the function of phenyl ring-containing residues surrounding WN2-R, Fig. 4E), E1545A/E1600A (to examine the importance of negatively charged residues at the binding site entrance, Fig. 4F), and Y1548A/V1552A/M1593A (to understand the role of the outer hydrophobic wall formed by these residues in ligand binding, Fig. 4G).
(§2) Whole-cell patch-clamp recordings were conducted at 25 ± 2 °C, utilizing an EPC 10USB patch-clamp amplifier (HEKA Elektronik, Lambrecht, Germany). Pipettes, with access resistance between 2.0 and 3.0 MΩ, were pulled from borosilicate glass capillary tubes using a 2-step vertical microelectrode puller (PC-10, Narishige Group, Tokyo, Japan). Voltage-clamp recordings were obtained with PatchMaster software v2 × 73 (HEKA Elektronik) 5 min after establishing whole-cell configuration, sampled at 20 kHz, and filtered at 5 kHz. To minimize voltage errors, 80% series resistance compensation was applied. Pipettes were filled with 140 mM CsF, 10 mM NaCl, 1 mM EGTA, and 10 mM HEPES (pH=7.4, adjusted with CsOH). The external solution contained 140 mM NaCl, 2 mM CaCl2, 1 mM MgCl2, 5 mM KCl, 10 mM HEPES, and 10 mM glucose (pH=7.4, adjusted with NaOH). IC50 values were determined in HEK293T or ND7/23 cell lines by voltage clamping at −80 mV, followed by stepping to the V1/2 of inactivation for 8 s to facilitate compound binding.

Nav1.7 Y1548A/F1609A = molecular target: T2, Nav1.7 Y1548A/F1609A (Homo sapiens, UniProt Q15858, F1609A/Y1548A); assay: as above; conditions: 1 μM
T2 construct: expressed in transfected cells; host or cells: HEK293T
Excerpt: as §1, §2

Nav1.7 E1545A/E1600A = molecular target: T3, Nav1.7 E1545A/E1600A (Homo sapiens, UniProt Q15858, E1545A/E1600A); assay: as above; conditions: 1 μM
T3 construct: expressed in transfected cells; host or cells: HEK293T
Excerpt: as §1, §2

hNav1.4 = molecular target: T4, hNav1.4 (Homo sapiens, UniProt P35499); assay: Subtype selectivity, patch clamp; conditions: read-out: Inhibitory rate on Nav1.4
T4 construct: expressed in transfected cells; host or cells: HEK293T
Experimental: (§3) VGSC inhibitors required credible subtype selectivity to void side effects caused by binding to nontarget subtypes. At a concentration of 1 μM, the inhibitory rates of WN2-R on hNav1.2, hNav1.3, hNav1.4, hNav1.5, mNav1.6, and hNav1.8 were determined (n = 3 to 6, Fig. 7A). […] To further evaluate the drug safety profile, high-dose acute toxicity experiments were conducted. Mice were administered a high dose of 30 mg/kg WN2-R through i.p. administration. The rotarod test, forced-swim test, and open field test were used to explore the effect of high-dose WN2-R on the motor ability of mice (n = 4). The rotarod test evaluated the drug's effect on motor coordination, the forced-swim test examined its impact on the overall motor system, and the open field test assessed the drug's influence on the motor and nervous systems.
(§4) Human embryonic kidney (HEK) 293T (ATCC CRL-3216) and ND7/23 cells (National Collection of Authenticated Cell Cultures SCSP-5026) were cultured under standard conditions (5% CO2, 37 °C) in Dulbecco’s modified Eagle’s medium (DMEM) containing 10% fetal bovine serum and 1% penicillin-streptomycin solution(all from Gibco, Thermo Fisher Scientific, Waltham, MA, USA). When the cells reached 70% to 90% confluence, human Nav1.2 (hNav1.2), human Nav1.3 (hNav1.3), human Nav1.4 (hNav1.4), human Nav1.5 (hNav1.5), and mouse Nav1.6 (mNav1.6) channel plasmids were cotransfected with enhanced green fluorescent protein (eGFP) into HEK293T cells. Additionally, plasmids expressing β1 and β2 subunits tagged with eGFP were cotransfected with the human Nav1.7 (hNav1.7) channel into HEK293T cells. Human Nav1.8 (hNav1.8) was transiently transfected into ND7/23 cells, along with eGFP, using Lipofectamine 2000 (Invitrogen), adhering strictly to the manufacturer’s protocol. For manual patch-clamp experiments, the cells were plated onto glass coverslips and used within 20 to 48 h of transfection.
as §2

hNav1.5 = molecular target: T5, hNav1.5 (Homo sapiens, UniProt Q14524); assay: Subtype selectivity, patch clamp; conditions: read-out: Inhibitory rate on Nav1.5
T5 construct: expressed in transfected cells; host or cells: HEK293T
Experimental: as §3, §4, §2

hNav1.3 = molecular target: T6, hNav1.3 (Homo sapiens, UniProt Q9NY46); assay: Subtype selectivity, patch clamp; conditions: 1 μM
T6 construct: expressed in transfected cells; host or cells: HEK293T
Experimental: as §3, §4, §2

hNav1.2 = molecular target: T7, hNav1.2 (Homo sapiens, UniProt Q99250); assay: Subtype selectivity, patch clamp; conditions: 1 μM
T7 construct: expressed in transfected cells; host or cells: HEK293T
Experimental: as §3, §4, §2

mNav1.6 = molecular target: T8, mNav1.6 (Mus musculus, UniProt Q9WTU3); assay: Subtype selectivity, patch clamp; conditions: 1 μM
T8 construct: expressed in transfected cells; host or cells: HEK293T
Experimental: as §3, §4, §2

Nav1.7 F1609A = molecular target: T9, Nav1.7 F1609A (Homo sapiens, UniProt Q15858, F1609A); assay: Single site-directed mutagenesis, inhibition by patch clamp; conditions: 1 μM
T9 construct: expressed in transfected cells; host or cells: HEK293T
Experimental: (§5) The amino acids depicted in Fig. 4C were individually mutated to alanine or glycine to perform single site-directed mutagenesis. Subsequently, the inhibition rates of these mutations against WN2-R were measured at a concentration of 1 μM (Fig. 4D). […] While single site-directed mutagenesis did affect the antagonistic activity of WN2-R, it did so to a limited extent, as the presumed induced-fit effect typically arises from the concerted movement of multiple residues.
as §2

Nav1.7 I1612A = molecular target: T10, Nav1.7 I1612A (Homo sapiens, UniProt Q15858, I1612A); assay: as above; conditions: 1 μM
T10 construct: expressed in transfected cells; host or cells: HEK293T
Experimental: as §5, §2

Nav1.7 N1551A = molecular target: T11, Nav1.7 N1551A (Homo sapiens, UniProt Q15858, N1551A); assay: as above; conditions: 1 μM
T11 construct: expressed in transfected cells; host or cells: HEK293T
Experimental: as §5, §2

Nav1.7 Y1548A = molecular target: T12, Nav1.7 Y1548A (Homo sapiens, UniProt Q15858, Y1548A); assay: as above; conditions: 1 μM
T12 construct: expressed in transfected cells; host or cells: HEK293T
Experimental: as §5, §2

Nav1.7 T1544A = molecular target: T13, Nav1.7 T1544A (Homo sapiens, UniProt Q15858, T1544A); assay: as above; conditions: 1 μM
T13 construct: expressed in transfected cells; host or cells: HEK293T
Experimental: as §5, §2

Nav1.7 M1593A = molecular target: T14, Nav1.7 M1593A (Homo sapiens, UniProt Q15858, M1593A); assay: as above; conditions: 1 μM
T14 construct: expressed in transfected cells; host or cells: HEK293T
Experimental: as §5, §2

Nav1.7 A1596G = molecular target: T15, Nav1.7 A1596G (Homo sapiens, UniProt Q15858, A1596G); assay: as above; conditions: 1 μM
T15 construct: expressed in transfected cells; host or cells: HEK293T
Experimental: as §5, §2

Nav1.7 R1613A = molecular target: T16, Nav1.7 R1613A (Homo sapiens, UniProt Q15858, R1613A); assay: as above; conditions: 1 μM
T16 construct: expressed in transfected cells; host or cells: HEK293T
Experimental: as §5, §2

T3 sequence (Q15858 whole entry E1545A/E1600A): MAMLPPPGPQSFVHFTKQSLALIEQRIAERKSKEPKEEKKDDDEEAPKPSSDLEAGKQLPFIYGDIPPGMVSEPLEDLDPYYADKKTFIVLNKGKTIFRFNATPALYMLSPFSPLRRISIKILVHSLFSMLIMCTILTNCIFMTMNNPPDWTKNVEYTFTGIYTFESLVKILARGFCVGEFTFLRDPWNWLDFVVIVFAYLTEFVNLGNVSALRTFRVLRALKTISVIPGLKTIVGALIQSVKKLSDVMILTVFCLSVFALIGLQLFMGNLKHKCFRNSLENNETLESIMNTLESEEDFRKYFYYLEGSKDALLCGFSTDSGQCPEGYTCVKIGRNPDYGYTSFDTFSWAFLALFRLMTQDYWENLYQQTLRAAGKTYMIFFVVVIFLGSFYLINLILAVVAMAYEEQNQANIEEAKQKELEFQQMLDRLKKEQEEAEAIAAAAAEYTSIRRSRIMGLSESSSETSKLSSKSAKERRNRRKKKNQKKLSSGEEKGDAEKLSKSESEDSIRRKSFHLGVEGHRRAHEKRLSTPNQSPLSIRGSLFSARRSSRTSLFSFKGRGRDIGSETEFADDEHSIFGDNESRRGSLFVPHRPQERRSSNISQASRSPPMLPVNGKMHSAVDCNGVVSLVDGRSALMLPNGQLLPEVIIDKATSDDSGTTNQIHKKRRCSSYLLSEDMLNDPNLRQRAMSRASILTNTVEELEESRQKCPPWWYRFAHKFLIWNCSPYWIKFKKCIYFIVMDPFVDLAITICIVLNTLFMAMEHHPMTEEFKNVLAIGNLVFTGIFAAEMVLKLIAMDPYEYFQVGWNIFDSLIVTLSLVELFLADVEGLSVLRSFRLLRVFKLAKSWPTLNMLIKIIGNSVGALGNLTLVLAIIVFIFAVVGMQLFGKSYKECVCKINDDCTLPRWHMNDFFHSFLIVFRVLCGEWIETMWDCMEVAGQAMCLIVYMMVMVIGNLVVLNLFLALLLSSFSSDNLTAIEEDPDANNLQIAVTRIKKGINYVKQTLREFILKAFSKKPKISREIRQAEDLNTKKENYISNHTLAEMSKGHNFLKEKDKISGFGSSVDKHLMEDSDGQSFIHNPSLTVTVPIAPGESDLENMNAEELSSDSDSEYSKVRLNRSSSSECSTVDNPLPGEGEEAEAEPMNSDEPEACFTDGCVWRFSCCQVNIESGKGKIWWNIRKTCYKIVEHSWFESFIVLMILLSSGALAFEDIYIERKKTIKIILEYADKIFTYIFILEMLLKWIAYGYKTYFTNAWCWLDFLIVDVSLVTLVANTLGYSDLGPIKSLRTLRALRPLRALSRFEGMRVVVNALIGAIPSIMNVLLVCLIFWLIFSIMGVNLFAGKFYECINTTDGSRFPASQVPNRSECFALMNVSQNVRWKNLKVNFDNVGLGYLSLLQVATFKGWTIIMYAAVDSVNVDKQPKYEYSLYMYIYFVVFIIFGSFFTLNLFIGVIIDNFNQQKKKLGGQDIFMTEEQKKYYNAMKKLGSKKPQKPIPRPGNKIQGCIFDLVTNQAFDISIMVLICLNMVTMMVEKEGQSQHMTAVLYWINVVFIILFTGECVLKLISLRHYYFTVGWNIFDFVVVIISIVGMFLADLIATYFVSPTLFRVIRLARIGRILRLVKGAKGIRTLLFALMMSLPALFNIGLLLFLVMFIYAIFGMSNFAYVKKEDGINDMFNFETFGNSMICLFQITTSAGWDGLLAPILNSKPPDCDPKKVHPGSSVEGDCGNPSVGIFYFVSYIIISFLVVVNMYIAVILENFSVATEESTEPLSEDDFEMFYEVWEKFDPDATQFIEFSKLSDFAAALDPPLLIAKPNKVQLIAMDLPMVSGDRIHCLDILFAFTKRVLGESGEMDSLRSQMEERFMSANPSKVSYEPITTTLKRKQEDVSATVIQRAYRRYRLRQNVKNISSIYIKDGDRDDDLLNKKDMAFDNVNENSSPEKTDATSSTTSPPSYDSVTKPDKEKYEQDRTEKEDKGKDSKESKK
T3 sequence (Q07699 19-218 partner): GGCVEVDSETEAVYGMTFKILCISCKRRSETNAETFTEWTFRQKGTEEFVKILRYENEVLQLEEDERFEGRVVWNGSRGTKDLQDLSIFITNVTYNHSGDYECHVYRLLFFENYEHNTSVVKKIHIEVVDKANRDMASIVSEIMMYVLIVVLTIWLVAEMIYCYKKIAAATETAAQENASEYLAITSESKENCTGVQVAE
T3 sequence (O60939 30-215 partner): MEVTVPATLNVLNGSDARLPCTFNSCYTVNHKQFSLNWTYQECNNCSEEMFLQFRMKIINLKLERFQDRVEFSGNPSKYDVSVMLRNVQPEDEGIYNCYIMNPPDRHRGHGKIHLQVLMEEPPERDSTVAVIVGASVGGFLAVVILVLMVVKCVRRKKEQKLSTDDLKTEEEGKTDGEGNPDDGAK
T9 sequence (Q15858 whole entry F1609A): as the sequence (Q15858 whole entry E1545A/E1600A) above, with A1545E, A1600E, F1609A counted along it
T9 sequence (Q07699 19-218 partner): as the sequence (Q07699 19-218 partner) above
T9 sequence (O60939 30-215 partner): as the sequence (O60939 30-215 partner) above

In the case of Cc1ccc(Cn2cc([C@H](CC(=O)NCCN(C)C)c3ccc(F)cc3)c3ccccc32)cc1 [WN2-R], the “Effect of the mutation on antagonistic activity” value (“Effect of the mutation” below) [1] is reported as “minimal effects”, the “Effect of the mutation” value (Nav1.7 Y1548A/F1609A) is reported as “minimal effects” and the “Effect of the mutation” value (Nav1.7 E1545A/E1600A) is reported as “inhibitory effect on WN2-R activity”. For the same molecule, the inhibition at 1 µM (hNav1.4) was 16.3%, the inhibition at 1 µM (hNav1.5) was 19.1% and the “Inhibitory rate on hNav1.3” value (hNav1.3) was “much lower than that on Nav1.7”. For the same molecule, the “Inhibitory rate on hNav1.2” value (hNav1.2) was “much lower than that on Nav1.7”, the “Inhibitory rate on mNav1.6” value (mNav1.6) was “much lower than that on Nav1.7” and the “Effect of the mutation” value (Nav1.7 F1609A) was “minimal impact”. For the same molecule, the “Inhibition rate on the mutant relative to wild type” value (Nav1.7 I1612A) was 30.6 % of WT, the “Inhibition rate on the mutant relative to wild type” value (Nav1.7 N1551A) was 58.9 % of WT and the “Effect of the mutation” value (Nav1.7 Y1548A) was “minimal impact”. For the same molecule, the “Inhibition rate on the mutant relative to wild type” value (Nav1.7 T1544A) was 60.7 % of WT, the “Inhibition rate on the mutant relative to wild type” value (Nav1.7 M1593A) was 57.1 % of WT and the “Effect of the mutation” value (Nav1.7 A1596G) was “exerted an influence”. For the same molecule, the “Inhibition rate on the mutant relative to wild type” value (Nav1.7 R1613A) was 57.4 % of WT.

Source: PMC11775380, “Discovery of Novel Nav1.7-Selective Inhibitors with the 1H-Indole-3-Propionamide Scaffold for Effective Pain Relief” (Research, 2025)
